Where two headings read alike, the source gives them in different places.
How the values were obtained:
[1] = tested on: VRSA strains; test: MIC by agar dilution or microbroth dilution method (NCCLS), VRSA strains; type: cell-based, Staph. aureus; conditions: VRSA strains (n = 10); for MIC: Staphylococcus aureus
Procedure, shortened: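 Clinical isolates from human infections, including VRSA strains from five countries, with S. aureus 29213 as QC strain. MICs by NCCLS agar dilution or microbroth dilution; combination synergy by agar dilution checkerboard, expressed as FIC index from MIC in combination over MIC alone.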

[2] = tested on: MRSA strains; test: MIC by agar dilution or microbroth dilution method (NCCLS); type: cell-based, Staph. aureus; design: MIC50: unit not given beside the values; conditions: for MIC: Staphylococcus aureus
Procedure, shortened: (§1)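 MICs determined by NCCLS agar dilution or microbroth dilution on clinical isolates, with Staph. aureus 29213 as quality control strain. Synergy by agar dilution checkerboard; FIC computed as MIC of drug in combination divided by MIC alone, summed into FIC index.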

[3] = tested on: Staph. aureus 29213; test: MIC, quality control strain; type: cell-based; conditions: Staphylococcus aureus, read-out: MIC Values
Procedure, shortened: as §1

[4] = MRSA / NCTC 10442, strain NCTC 10442, read-out: MIC Values
[5] = MRSA, MRSA strains (n = 38), read-out: MICs 50%
[6] = MRSA, MRSA strains (n = 38), read-out: MICs 90%
[7] = MRSA, strain 85/2082, read-out: MIC Values
[8] = MRSA, strain 99.3700W, read-out: MIC Values
[9] = MRSA, strain 99.3759V, read-out: MIC Values
[10] = MRSA, strain AMC 11094, read-out: MIC Values
[11] = MRSA, strain BM12612(new), read-out: MIC Values
[12] = MRSA, strain H1, read-out: MIC Values
[13] = MRSA, strain HIP 5827, read-out: MIC Values
[14] = MRSA, strain HIP 5836, read-out: MIC Values
[15] = MRSA, strain HIP 6297, read-out: MIC Values
[16] = MRSA, strain HIP 7737, read-out: MIC Values
[17] = MRSA, strain JSCC 340, read-out: MIC Values
[18] = MRSA, strain JSCC 351, read-out: MIC Values
[19] = MRSA, strain JSCC 363, read-out: MIC Values
[20] = MRSA, strain JSCC 381, read-out: MIC Values
[21] = MRSA, strain JSCC 390, read-out: MIC Values
[22] = MRSA, strain JSCC 401, read-out: MIC Values
[23] = MRSA, strain JSCC 413, read-out: MIC Values
[24] = MRSA, strain JSCC 431, read-out: MIC Values
[25] = MRSA, strain JSCC 440, read-out: MIC Values
[26] = MRSA, strain JSCC 451, read-out: MIC Values
[27] = MRSA, strain JSCC 463, read-out: MIC Values
[28] = MRSA, strain JSCC 481, read-out: MIC Values
[29] = MRSA, strain JSCC 490, read-out: MIC Values
[30] = MRSA, strain JSCC 501, read-out: MIC Values
[31] = MRSA, strain JSCC 513, read-out: MIC Values
[32] = MRSA, strain JSCC 531, read-out: MIC Values
[33] = MRSA, strain JSCC 540, read-out: MIC Values
[34] = MRSA, strain JSCC 551, read-out: MIC Values
[35] = MRSA, strain JSCC 563, read-out: MIC Values
[36] = MRSA, strain JSCC 581 (lacks the mecA gene), read-out: MIC Values
[37] = MRSA, strain JSCC 590 (lacks the mecA gene), read-out: MIC Values
[38] = MRSA, strain JSCC 601, read-out: MIC Values
[39] = MRSA, strain JSCC 640, read-out: MIC Values
[40] = MRSA, strain JSCC 651, read-out: MIC Values
[41] = MRSA, strain JSCC 663, read-out: MIC Values
[42] = MRSA, strain JSCC 681, read-out: MIC Values
[43] = MRSA, strain JSCC 690, read-out: MIC Values
[44] = MRSA, strain JSCC 701, read-out: MIC Values
[45] = MRSA, strain JSCC 713, read-out: MIC Values
[46] = MRSA, strain JSCC 731, read-out: MIC Values
[47] = MRSA, strain JSCC 740, read-out: MIC Values
[48] = MRSA, strain JSCC 751, read-out: MIC Values
[49] = MRSA, strain JSCC 763, read-out: MIC Values
[50] = MRSA, strain JSCC 781, read-out: MIC Values
[51] = MRSA, strain JSCC 870, read-out: MIC Values
[52] = MRSA, strain LIM 2, read-out: MIC Values
[53] = MRSA, strain Mu 3, read-out: MIC Values
[54] = MRSA, strain Mu 50, read-out: MIC Values
[55] = ATCC29213, strain ATCC 29213, control sample (Ex. 26)
[56] = ATCC29213, strain ATCC29213, control sample (Ex. 37)

CC(=O)NC[C@H]1CN(c2ccc(N3CCOCC3)c(F)c2)C(=O)O1 [LZD, (S)-N-[[3-[3-fluoro-4-(4-morpholinyl)phenyl]-2-oxo-5-oxazolidinyl]methyl]acetamide]
MIC ([1]; read-out: MICs 50%): 2 µg/mL | MIC ([1]; read-out: MICs 90%): 2 µg/mL | MICs Range [1]: 1 to 2 mg/L | MIC50 ([2]; 48 MRSA strains tested, including ten VRSA strains): 2 | MICs Range ([2]; MRSA strains (n = 38)): 0.5 to 2 mg/L | MIC [2, 4]: 2 µg/mL | MIC [2, 5]: 2 µg/mL | MIC [2, 6]: 2 µg/mL | MIC [2, 7]: 2 µg/mL | MIC [2, 8]: 2 µg/mL | MIC [2, 9]: 2 µg/mL | MIC [2, 10]: 2 µg/mL | MIC [2, 11]: 2 µg/mL | MIC [2, 12]: 2 µg/mL | MIC [2, 13]: 2 µg/mL | MIC [2, 14]: 2 µg/mL | MIC [2, 15]: 2 µg/mL | MIC [2, 16]: 2 µg/mL | MIC [2, 17]: 2 µg/mL | MIC [2, 18]: 2 µg/mL | MIC [2, 19]: 2 µg/mL | MIC [2, 20]: 2 µg/mL | MIC [2, 21]: 2 µg/mL | MIC [2, 22]: 2 µg/mL | MIC [2, 23]: 2 µg/mL | MIC [2, 24]: 2 µg/mL | MIC [2, 25]: 2 µg/mL | MIC [2, 26]: 2 µg/mL | MIC [2, 27]: 2 µg/mL | MIC [2, 28]: 2 µg/mL | MIC [2, 29]: 2 µg/mL | MIC [2, 30]: 2 µg/mL | MIC [2, 31]: 1 µg/mL | MIC [2, 32]: 1 µg/mL | MIC [2, 33]: 1 µg/mL | MIC [2, 34]: 2 µg/mL | MIC [2, 35]: 1 µg/mL | MIC [2, 36]: 2 µg/mL | MIC [2, 37]: 2 µg/mL | MIC [2, 38]: 1 µg/mL | MIC [2, 39]: 1 µg/mL | MIC [2, 40]: 2 µg/mL | MIC [2, 41]: 2 µg/mL | MIC [2, 42]: 0.5 µg/mL | MIC [2, 43]: 1 µg/mL | MIC [2, 44]: 1 µg/mL | MIC [2, 45]: 2 µg/mL | MIC [2, 46]: 1 µg/mL | MIC [2, 47]: 2 µg/mL | MIC [2, 48]: 2 µg/mL | MIC [2, 49]: 2 µg/mL | MIC [2, 50]: 2 µg/mL | MIC [2, 51]: 2 µg/mL | MIC [2, 52]: 1 µg/mL | MIC [2, 53]: 2 µg/mL | MIC [2, 54]: 2 µg/mL | susceptibility (range of MICs) ([2]; all tested MRSA isolates, including VRSA strains): susceptible range of MICs | MIC [3, 55]: 2 µg/mL | MIC [3, 56]: 2 µg/mL

NCC[C@H](O)C(=O)N[C@@H]1C[C@H](N)[C@@H](O[C@H]2O[C@H](CN)CC[C@H]2N)[C@H](O)[C@H]1O[C@H]1O[C@H](CO)[C@@H](O)[C@H](N)[C@H]1O [ABK, arbekacin]
MIC ([1]; read-out: MICs 50%): 1 µg/mL | MIC ([1]; read-out: MICs 90%): 4 µg/mL | MICs Range [1]: 0.125 to 4 mg/L | MICs Range ([2]; MRSA strains (n = 38)): 0.125 to 4 mg/L | MIC [2, 4]: 0.125 µg/mL | MIC [2, 5]: 0.5 µg/mL | MIC [2, 6]: 2 µg/mL | MIC [2, 7]: 0.25 µg/mL | MIC [2, 8]: 4 µg/mL | MIC [2, 9]: 2 µg/mL | MIC [2, 10]: 0.25 µg/mL | MIC [2, 11]: 2 µg/mL | MIC [2, 12]: 1 µg/mL | MIC [2, 13]: 1 µg/mL | MIC [2, 14]: 1 µg/mL | MIC [2, 15]: 0.125 µg/mL | MIC [2, 16]: 0.125 µg/mL | MIC [2, 17]: 1 µg/mL | MIC [2, 18]: 1 µg/mL | MIC [2, 19]: 1 µg/mL | MIC [2, 20]: 0.5 µg/mL | MIC [2, 21]: 0.5 µg/mL | MIC [2, 22]: 0.5 µg/mL | MIC [2, 23]: 1 µg/mL | MIC [2, 24]: 1 µg/mL | MIC [2, 25]: 0.25 µg/mL | MIC [2, 26]: 4 µg/mL | MIC [2, 27]: 0.5 µg/mL | MIC [2, 28]: 1 µg/mL | MIC [2, 29]: 0.5 µg/mL | MIC [2, 30]: 0.5 µg/mL | MIC [2, 31]: 0.25 µg/mL | MIC [2, 32]: 0.5 µg/mL | MIC [2, 33]: 1 µg/mL | MIC [2, 34]: 2 µg/mL | MIC [2, 35]: 0.125 µg/mL | MIC [2, 36]: 0.5 µg/mL | MIC [2, 37]: 0.25 µg/mL | MIC [2, 38]: 0.25 µg/mL | MIC [2, 39]: 2 µg/mL | MIC [2, 40]: 1 µg/mL | MIC [2, 41]: 0.5 µg/mL | MIC [2, 42]: 1 µg/mL | MIC [2, 43]: 2 µg/mL | MIC [2, 44]: 1 µg/mL | MIC [2, 45]: 2 µg/mL | MIC [2, 46]: 0.5 µg/mL | MIC [2, 47]: 0.125 µg/mL | MIC [2, 48]: 2 µg/mL | MIC [2, 49]: 0.25 µg/mL | MIC [2, 50]: 2 µg/mL | MIC [2, 51]: 0.5 µg/mL | MIC [2, 52]: 1 µg/mL | MIC [2, 53]: 2 µg/mL | MIC [2, 54]: 4 µg/mL | MIC ([2]; MRSA, strain N315, read-out: MIC Values): 0.5 µg/mL | MIC [3, 55]: 0.25 µg/mL | MIC [3, 56]: 0.25 µg/mL
